Experiments:
[1] = test system: homologous recombination repair; assay: Homologous recombination repair reporter plasmid system (flow cytometry, GFP/mRuby); format: cell-based; details: treated for 4 h at 18 h, 24 h, 36 h after medium change; flow analysis 72 h after transfection
Procedure: First, a reporter plasmid system for homologous recombination repair is constructed, and the cells emit green fluorescence only when the foreign homologous sequence and the homologous fragment of the cell are homologously recombined. Meanwhile, mRuby red fluorescent protein is transferred to label the efficiency of transfected cells, and the efficiency of homologous recombination is determined by flow cytometry analysis of the ratio of green fluorescent protein to mRuby. 18 h after changing the medium for the transfection, the control group is treated with DMSO for 4 h; and 18 h, 24 h, and 36 h after changing the medium for the transfection, the experimental group is treated with (−)-blebbistatin for 4 h, and the HDR efficiency is analyzed by flow analysis 72 h after transfection. […] The experimental procedure is as follows: after changing the medium for the transfection, the control group is treated with DMSO; and after changing the medium for the transfection, the experimental group is treated with 250 nM RTA408; then the HDR efficiency is analyzed by flow analysis 72 h after transfection.

liver tissue = assay: Liver tissue rigidity (Young's modulus, Mark-10 ESM303) and second harmonic scanning in CCl4 chronic severe liver damage; format: in vivo, mice
Text: The ICR, C57Bl/6 mice used in the experiment are purchased from SPF (Beijing) Biotechnology Co., Ltd.; elbow tweezers, finger tweezers, scissors, needle holders, suture needles, suture threads are purchased from Asone Trading Co., Ltd.; antibiotics are purchased from Gibco (15240-062). A chronic severe liver damage model induced by CCl4 (the same as Example 4) is constructed, and the mice are sacrificed by cervical dislocation after modeling. […] It can be seen from the above results that, the myosin inhibitor reduces the tissue rigidity during liver damage process.

CCl4 liver damage = assay: Blood biochemistry, hepatocyte proliferation, apoptosis and liver function genes after CCl4 liver damage; format: in vivo, mice
Procedure: Blood biochemical analysis (fasting 12-16 hours before sampling) further confirms that myosin inhibitor (−)-blebbistatin may reduce the content of liver damage indicators such as ALT, AST and GGT, as shown in FIG. 4A. Further, Alb-crexmTmG hybrid mice are used for fibrosis modeling with CCl4, wherein GFP is expressed in mature hepatocytes of the mice. […] In summary, the myosin inhibitor (−)-blebbistatin promotes liver regeneration by inhibiting fibrosis of liver damage, promoting hepatocyte proliferation, and reducing apoptosis, thereby maintaining liver function.

human fibroblasts [2] = assay: Transcriptome sequencing of treated human fibroblasts; format: cell-based
[3] = test system: CCl4-induced mild hepatic fibrosis; assay: CCl4-induced mild hepatic fibrosis model; format: in vivo, mice; details: 1 mg or 3 mg per kg per day, intraperitoneal or tail vein injection, 1-2 weeks
Procedure: The ICR, C57Bl/6 mice used in the experiment are purchased from SPF (Beijing) Biotechnology Co., Ltd., carbon tetrachloride is purchased from Aladdin Reagent (Shanghai) Co., Ltd. (C131583-1L), and corn oil is purchased from Sigma (C8267). 8-week-old female mice are selected and housed in the barrier for one week, they are randomly divided into two groups, and respectively injected with CCl4/corn oil (a volume ratio of 2:5) and corn oil. The dose of CCl4 is 0.5 ml/kg, twice a week for 4 weeks. After 4 weeks, the mice are anesthetized with 5% chloral hydrate, and part of the hepatic lobe is taken out, fixing with 4% paraformaldehyde, dehydrating and immersing in wax, then staining with Sirius Red (YY-R20384-100ML) kit for fibrosis, wherein the collagenous fibers are red, as shown in FIG. 2B. After successful identification of the modeling, the drug administration is performed by intraperitoneal injection or tail vein injection. The small molecule is dissolved in dimethyl sulfoxide at a concentration of 1 mg or 3 mg per kg per day; successfully adding 2-5% DMSO+30% propylene glycol+2% Tween 80+ddH2O, and the control group (“Control”) is abbreviated as “Con” in the figure. […]

[4] = test system: mouse adult liver, lung, and heart-derived primary mesenchymal cells (priMCs); assay: TGF-β1-induced transformation of mouse primary mesenchymal cells into myofibroblasts; format: cell-based; details: 20 μM, 3 ng/ml TGF-β1, 7 days
Text: In this example, cell models for in vitro fibrosis are respectively built to activate mouse hepatic stellate Cells (mHSCs, FIG. 13(B)), mouse embryonic fibroblasts (MEFs FIG. 13(C)), mouse adult liver, lung, and heart-derived primary mesenchymal cells (priMCs, FIG. 13(D)), and human hepatic stellate cells (hLX-2, FIG. 13(E)) into myofibroblasts through the induction of TGF-β1. The specific experimental procedure is as shown in FIG. 9A: a medium containing 10% serum is used for the initial cell culture; after 24 hours the medium is replaced with low serum medium (or pre-starvation treatment for 16 hours) while adding 3 ng/ml TGF-β1 with DMSO or Bleb (20 μM); after 7 days the expression of myofibroblast activation marker protein (Acta2), collagen (Col1a1, Col1a2, Col3a1, and Col1a2), and matrix metalloproteinases and inhibitors (collagenases: MmP8, and MmP13; gelatinases: MmP2, and MmP9; a metalloproteinase inhibitor: Timp1/2/3) are identified.

human fibroblasts [5] = assay: Cellular mechanical homeostasis and cell softening in human fibroblasts (phalloidin staining, immunofluorescence, quantitative PCR); format: cell-based
Text: FIG. 1A is a schematic diagram of laser confocal scanning.

Cc1ccc2c(c1)C(=O)[C@]1(O)CCN(c3ccccc3)C1=N2 [(−)-blebbistatin]
efficiency of homologous recombination (HDR efficiency) [1]: significantly increases | rigidity of liver tissue (Young's modulus) (liver tissue; day 7 of the treatment): significantly reduces | massive parallel array of fibers in the liver tissue (second harmonic intravital scanning) (liver tissue; mouse, in vivo): reduced | Alb expression in GFP-expressing hepatocytes (CCl4 liver damage; Alb-cre x mTmG hybrid mice, CCl4 fibrosis modeling): most of the cells expressing GFP express Alb | expression of hepatocyte-related, bile duct-related and proliferation-related genes (transcriptional level) (CCl4 liver damage; compared with the control group): significantly maintains high level expression | content of liver damage indicators such as ALT, AST and GGT (blood biochemical analysis) (CCl4 liver damage; fasting 12-16 hours before sampling): reduce | apoptosis during liver damage (TUNEL staining) (CCl4 liver damage; mouse, in vivo): reduces | cell proliferation after liver damage (ALB/Ki-67 staining) (CCl4 liver damage; mouse, in vivo): significantly promotes | DNA replication, homologous recombination, mismatch repair, nucleotide excision repair and base excision repair related genes (human fibroblasts [2]; 5-50 μM, after 6 hours): significantly upregulated | important genes involved in homologous recombination (human fibroblasts [2]; 5-50 μM, after 6 hours): significantly upregulated | genes related to initiation of regeneration (such as FST) and neurogenesis-related genes (human fibroblasts [2]; after induction for 22 days under the neural induction system): significantly upregulated | mRNA expression of general stress response genes (human fibroblasts [2]; day 1 and day 2): begins to downregulate | genes related to general stress response (HSP70 family, HSP90) (human fibroblasts [2]; early 6 hours of the induction): upregulated | fibrosis (Sirius red staining) [3]: significantly inhibits | TGF-β1 induced transformation into myofibroblasts and extracellular matrix synthesis [4]: significantly inhibits | EZH2 protein level and localization (human fibroblasts [5]): down-regulated and it is localized at the cytoplasm | nucleus morphology (human fibroblasts [5]; 20 μM, vs DMSO control): irregular folds | stress fibers in the cell (phalloidin staining) (human fibroblasts [5]; 20 μM, vs DMSO control): disintegrated | cells with obvious nuclear localization of stress effect protein YAP1/TAZ (human fibroblasts [5]; after drug treatment): 35% | proteins related to regulation of cellular mechanical hardness (quantitative PCR) (human fibroblasts [5]; after small molecule treatment): significantly down-regulated | modification of H3K27 trimethylation (immunofluorescence) (human fibroblasts [5]; day 4): significantly reduced | active transcriptional region labeled with fluorouridine (human fibroblasts [5]; three biological replicates): also distributed near the periphery of the nucleus | heterochromatin HP1 proteins (human fibroblasts [5]; vs DMSO control): the control group is significantly stronger than the experimental group
